Source: US5023353A, “Deoxoartemisinin: new compound and composition for the treatment of malaria” (priority 1990, dated 1991)
In brackets after ≈: the same amount, converted by molar mass. Where two headings read alike, the source gives them in different places.

Experiments:
[1] = tested on: Plasmodium falciparum D-6; assay: In vitro antimalarial activity, semiautomated microdilution (hypoxanthine incorporation), D-6 clone; format: cell-based; conditions: for IC50: Plasmodium falciparum, read-out: In Vitro Antimalarial Activity IC50, D-6
Description: (§1) The intrinsic antimalarial activities of deoxoartemisinin and various control drugs were quantitatively assessed by using modifications of the semiautomated microdilution method of Desjardins. Deoxoartemisinin was dissolved in DMSO and subsequently diluted in culture medium with 10% plasma. Equimolar starting concentrations were predetermined to generate well-defined concentration curves over a 64-fold range of dilutions. Microtiter plates prepared with serial dilutions of drug and parasite suspensions (at 0.5% parasitemia and 1.5% hematocrit) were incubated at 37° C. in an air-tight plexiglass box, which was flushed with 5% oxygen, 5% carbon dioxide, and 90% nitrogen. After 24 hours of incubation, cultures were labeled with tritiated hypoxanthine and incubated for an additional 18-20 hours prior to harvesting particulate matter on fiber glass strips. Hypoxanthine incorporation in each well was determined by scintillation spectrophotometry and served as an index of specific parasite growth rates. Computer-generated concentration-response curves were analyzed by non-linear regression, and 50% inhibitory concentrations were calculated for each drug. The antimalarial tests were conducted using cultures obtained from the Malaria Laboratory, Division of Experimental Therapeutics, WRAIR/WRAMC, Washington, D.C. The W-2 culture utilized in the testing of Example II was of Indochina origin, chloroquine-resistant and mefloquine-sensitive. The other culture D-6, used in the testing of Example II and reported in Table I, is of Sierra Leone origin, chloroquine-sensitive and mefloquine-resistant.
(§2) Set out in Table I are the comparative results obtained from in vitro testing the activity of the inventive compound, known antimalarial compounds, artemisinin, and another derivative of artemisinin.

[2] = in vivo; cited from earlier work
[3] = background statement; cited from earlier work
[4] = tested on: Plasmodium falciparum W-2; assay: In vitro antimalarial activity, semiautomated microdilution (hypoxanthine incorporation), W-2 clone; format: cell-based; conditions: for IC50: Plasmodium falciparum, read-out: In Vitro Antimalarial Activity IC50, W-2
Description: as §1, §2

[5] = Solubility and lipophilicity
[6] = tested on: Plasmodium falciparum; assay: Antimalarial screening tests in vitro; format: cell-based; conditions: nonperoxy compounds
Description: as §1, with “The W-2 culture utilized in the testing of Example II was of Indochina origin, chloroquine-resistant and mefloquine-sensitive. The other culture D-6, used in the testing of Example II and reported in Table I, is of Sierra Leone origin, chloroquine-sensitive and mefloquine-resistant.” left out

[7] = D-6 clone, Sierra Leone origin, chloroquine-sensitive and mefloquine-resistant
[8] = W-2 clone, Indochina origin, chloroquine-resistant and mefloquine-sensitive

| SMILES | IC50 [1, 7] [ng/mL] | IC50 [4, 8] [ng/mL] | IC50 [1] [ng/mL] | IC50 [4] [ng/mL] | further results |
| --- | --- | --- | --- | --- | --- |
| C[C@@H]1CC[C@H]2[C@@H](C)C(=O)O[C@@H]3O[C@@]4(C)CC[C@@H]1[C@]32OO4 [Artemisinin, artemisinin] | 2.33 (≈ 0.00825 µM) | 1.21 (≈ 0.00429 µM) | – | – | side effects [2]: No side effects; solubility in water or oils [3]: only sparingly soluble in either water or oils |
| CCN(CC)CCCC(C)Nc1ccnc2cc(Cl)ccc12 (centres unmarked) [Chloroquine] | – | – | 2.69 (≈ 0.00841 µM) | 55.7 (≈ 0.174 µM) | – |
| CC1CCC2C(C)COC3OC4(C)CCC1C32OO4 (centres unmarked) [Deoxoartemisinin, deoxoartemisinin] | 0.58 (≈ 0.00216 µM) | 0.15 (≈ 0.000559 µM) | – | – | antimalarial activity in vitro as compared to artemisinin, chloroquine-sensitive malaria ([1]; against chloroquine-sensitive malaria, relative to artemisinin): approximately eight; solubility in organic solvents [5]: soluble in chloroform, diethylether, acetonitrile, cyclohexane and hexane; antimalarial activity in vitro as compared to artemisinin, chloroquine-resistant malaria ([4]; against chloroquine-resistant malaria, relative to artemisinin): four |
| C[C@@H]1CC[C@H]2[C@@H](C)C(=O)O[C@@H]3O[C@@]4(C)CC[C@@H]1[C@]32O4 [Deoxyartemisinin, deoxyartemisinin] | 762 (≈ 2.86 µM) | – | – | – | activity in the antimalarial screening tests [6]: failed to exhibit activity |
| OC(c1cc(C(F)(F)F)nc2c(C(F)(F)F)cccc12)C1CCCCN1 (centres unmarked) [Mefloquine] | 7.3 (≈ 0.0193 µM) | 0.74 (≈ 0.00196 µM) | – | – | – |
| CCc1nc(N)nc(N)c1-c1ccc(Cl)cc1 [Pyrimethamine] | 0.05 (≈ 0.000201 µM) | 39.3 (≈ 0.158 µM) | – | – | – |
| C=C[C@H]1C[N@@]2CC[C@H]1C[C@H]2[C@H](O)c1ccnc2ccc(OC)cc12 [Quinine] | – | – | 10.8 (≈ 0.0333 µM) | 59.7 (≈ 0.184 µM) | – |
| COc1ncnc(NS(=O)(=O)c2ccc(N)cc2)c1OC [Sulfadoxine] | 16.4 (≈ 0.0527 µM) | 14300 (≈ 46.2 µM) | – | – | – |
| CN(C)[C@@H]1C(=O)C(C(N)=O)=C(O)[C@@]2(O)C(=O)C3=C(O)c4c(O)cccc4[C@@](C)(O)[C@H]3C[C@@H]12 [Tetracycline] | – | – | 7230 (≈ 16.3 µM) | 10200 (≈ 23 µM) | – |
